{"source": "patent US20260285850A1", "about": "“SUBSTITUTED OXAZOLIDINONES AND IMIDAZOLINONES AS HERBICIDES” (FMC CORPORATION, priority 2023, published 2026)", "format_in_all_cases": "in vivo", "key": {"[1]": {"tested_on": "green foxtail (Setaria viridis)", "assay": "Test A preemergence soil spray, visual injury rating 0-100", "conditions": "10 days", "outline": "(§1)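 Preemergence directed soil spray or postemergence spray (2-10 cm, 1-2 leaf); loam/sand mix; compound in non-phytotoxic solvent + surfactant. Greenhouse, 10 d. Visual injury vs untreated, 0 = none, 100 = complete control.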"}, "kochia (Bassia scoparia) [2]": {"tested_on": "kochia (Bassia scoparia)", "assay": "Test A preemergence soil spray, visual injury rating 0-100", "conditions": "10 days", "outline": "as §1"}, "soybean (Glycine max) [3]": {"tested_on": "soybean (Glycine max)", "assay": "Test A preemergence soil spray, visual injury rating 0-100", "conditions": "10 days", "outline": "as §1"}, "[4]": {"tested_on": "blackgrass (Alopecurus myosuroides)", "assay": "Test A preemergence soil spray, visual injury rating 0-100", "conditions": "10 days", "outline": "as §1"}, "[5]": {"tested_on": "barnyardgrass (Echinochloa crus-galli)", "assay": "Test A preemergence soil spray, visual injury rating 0-100", "conditions": "10 days", "outline": "as §1"}, "[6]": {"tested_on": "ryegrass, Italian (italian ryegrass, Lolium multiflorum)", "assay": "Test A preemergence soil spray, visual injury rating 0-100", "conditions": "10 days", "outline": "as §1"}, "corn (Zea mays) [7]": {"tested_on": "corn (Zea mays)", "assay": "Test A preemergence soil spray, visual injury rating 0-100", "conditions": "10 days", "outline": "as §1"}, "[8]": {"tested_on": "oat, wild (wild oat, Avena fatua)", "assay": "Test A preemergence soil spray, visual injury rating 0-100", "conditions": "10 days", "outline": "as §1"}, "[9]": {"tested_on": "wheat (Triticum aestivum)", "assay": "Test A preemergence soil spray, visual injury rating 0-100", "conditions": "10 days", "outline": "as §1"}, "[10]": {"tested_on": "ragweed (common ragweed, Ambrosia artemisiifolia)", "assay": "Test A preemergence soil spray, visual injury rating 0-100", "conditions": "10 days", "outline": "as §1"}, "rice (Oryza sativa)": {"tested_on": "rice (Oryza sativa)", "assay": "Test B flooded paddy test, visual plant response rating 0-100", "conditions": "250 g ai/ha, Flood, applied to paddy water, evaluated after 13 days", "outline": "(§2)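 Plants were grown to the 2-leaf stage, then pots were flooded to 3 cm above the soil and test compounds were applied directly into the paddy water. Water depth was held there throughout; after 13 days in a greenhouse, injury was scored visually against untreated controls.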"}, "[11]": {"tested_on": "barnyardgrass (Echinochloa crusgalli)", "assay": "Test B flooded paddy test, visual plant response rating 0-100", "conditions": "250 g ai/ha, Flood, applied to paddy water, evaluated after 13 days", "outline": "as §2"}, "[12]": {"tested_on": "ducksalad (Heteranthera limosa)", "assay": "Test B flooded paddy test, visual plant response rating 0-100", "conditions": "250 g ai/ha, Flood, applied to paddy water, evaluated after 13 days", "outline": "as §2"}, "[13]": {"tested_on": "sedge, umbrella (small-flower umbrella sedge, Cyperus difformis)", "assay": "Test B flooded paddy test, visual plant response rating 0-100", "conditions": "250 g ai/ha, Flood, applied to paddy water, evaluated after 13 days", "outline": "as §2"}, "[14]": {"tested_on": "horseweed (Erigeron canadensis)", "assay": "Test A postemergence application, visual injury rating 0-100", "outline": "as §1"}, "[15]": {"tested_on": "galium (catchweed bedstraw, Galium aparine)", "assay": "Test A postemergence application, visual injury rating 0-100", "outline": "as §1"}, "[16]": {"tested_on": "green foxtail (Setaria viridis)", "assay": "Test A postemergence application, visual injury rating 0-100", "outline": "as §1"}, "kochia (Bassia scoparia) [17]": {"tested_on": "kochia (Bassia scoparia)", "assay": "Test A postemergence application, visual injury rating 0-100", "outline": "as §1"}, "soybean (Glycine max) [18]": {"tested_on": "soybean (Glycine max)", "assay": "Test A postemergence application, visual injury rating 0-100", "outline": "as §1"}, "[19]": {"tested_on": "blackgrass (Alopecurus myosuroides)", "assay": "Test A postemergence application, visual injury rating 0-100", "outline": "as §1"}, "[20]": {"tested_on": "barnyardgrass (Echinochloa crus-galli)", "assay": "Test A postemergence application, visual injury rating 0-100", "outline": "as §1"}, "[21]": {"tested_on": "palmer (palmer amaranth, palmer pigweed, Amaranthus palmeri)", "assay": "Test A postemergence application, visual injury rating 0-100", "outline": "as §1"}, "[22]": {"tested_on": "ryegrass, Italian (italian ryegrass, Lolium multiflorum)", "assay": "Test A postemergence application, visual injury rating 0-100", "outline": "as §1"}, "corn (Zea mays) [23]": {"tested_on": "corn (Zea mays)", "assay": "Test A postemergence application, visual injury rating 0-100", "outline": "as §1"}, "[24]": {"tested_on": "oat, wild (wild oat, Avena fatua)", "assay": "Test A postemergence application, visual injury rating 0-100", "outline": "as §1"}, "[25]": {"tested_on": "wheat (Triticum aestivum)", "assay": "Test A postemergence application, visual injury rating 0-100", "outline": "as §1"}, "[26]": {"tested_on": "ragweed (common ragweed, Ambrosia artemisiifolia)", "assay": "Test A postemergence application, visual injury rating 0-100", "outline": "as §1"}, "[27]": {"conditions": "62 g ai/ha, 0 = no effect, 100 = complete control"}, "[28]": {"conditions": "62 g ai/ha, postemergence, 10 days, 0 = no effect, 100 = complete control"}, "[29]": {"conditions": "Postemergence, 16 g ai/ha, greenhouse 10 days, 0 no effect, 100 complete control"}}, "data": [{"smiles": "CSCCOC(=O)C1=CCC(NC(=O)C2(C)CN(c3cc(F)cc(Cl)c3)C(=O)O2)C1", "note": "(centres unmarked) [Compound 135]", "values": [{"measurement": "Foxtail, Green plant response rating", "setting": "[1]; 16 g ai/ha, 0 to 100 scale", "value": 0}, {"measurement": "Foxtail, Green plant response rating (0-100)", "setting": "[1]; [27]", "value": 80}, {"measurement": "Kochia plant response rating", "setting": "kochia (Bassia scoparia) [2]; 16 g ai/ha, 0 to 100 scale", "value": 0}, {"measurement": "Kochia plant response rating (0-100)", "setting": "kochia (Bassia scoparia) [2]; [27]", "value": 20}, {"measurement": "Soybean plant response rating", "setting": "soybean (Glycine max) [3]; 16 g ai/ha, 0 to 100 scale", "value": 20}, {"measurement": "Soybean plant response rating (0-100)", "setting": "soybean (Glycine max) [3]; [27]", "value": 20}, {"measurement": "Blackgrass plant response rating", "setting": "[4]; 16 g ai/ha, 0 to 100 scale", "value": 0}, {"measurement": "Blackgrass plant response rating (0-100)", "setting": "[4]; [27]", "value": 20}, {"measurement": "Barnyardgrass plant response rating", "setting": "[5]; 16 g ai/ha, 0 to 100 scale", "value": 20}, {"measurement": "Barnyardgrass plant response rating (0-100)", "setting": "[5]; [27]", "value": 50}, {"measurement": "Ryegrass, Italian plant response rating", "setting": "[6]; 16 g ai/ha, 0 to 100 scale", "value": 0}, {"measurement": "Ryegrass, Italian plant response rating (0-100)", "setting": "[6]; [27]", "value": 90}, {"measurement": "Corn plant response rating", "setting": "corn (Zea mays) [7]; 16 g ai/ha, 0 to 100 scale", "value": 0}, {"measurement": "Corn plant response rating (0-100)", "setting": "corn (Zea mays) [7]; [27]", "value": 70}, {"measurement": "Oat, Wild plant response rating", "setting": "[8]; 16 g ai/ha, 0 to 100 scale", "value": 20}, {"measurement": "Oat, Wild plant response rating (0-100)", "setting": "[8]; [27]", "value": 30}, {"measurement": "Wheat plant response rating", "setting": "[9]; 16 g ai/ha, 0 to 100 scale", "value": 10}, {"measurement": "Wheat plant response rating (0-100)", "setting": "[9]; [27]", "value": 90}, {"measurement": "Ragweed plant response rating", "setting": "[10]; 16 g ai/ha, 0 to 100 scale", "value": 0}, {"measurement": "Ragweed plant response rating (0-100)", "setting": "[10]; [27]", "value": 0}, {"measurement": "Plant response rating, Rice (0 to 100 scale, 0 is no effect and 100 is complete control)", "setting": "rice (Oryza sativa)", "value": 65}, {"measurement": "Plant response rating, Barnyardgrass (0 to 100 scale, 0 is no effect and 100 is complete control)", "setting": "[11]", "value": 90}, {"measurement": "Plant response rating, Ducksalad (0 to 100 scale, 0 is no effect and 100 is complete control)", "setting": "[12]", "value": 65}, {"measurement": "Plant response rating, Sedge, Umbrella (0 to 100 scale, 0 is no effect and 100 is complete control)", "setting": "[13]", "value": 95}, {"measurement": "Horseweed plant response rating (0-100)", "setting": "[14]; [28]", "value": 90}, {"measurement": "Horseweed plant response rating (0 to 100 scale)", "setting": "[14]; [29]", "value": 70}, {"measurement": "Galium plant response rating (0-100)", "setting": "[15]; [28]", "value": 80}, {"measurement": "Galium plant response rating (0 to 100 scale)", "setting": "[15]; [29]", "value": 70}, {"measurement": "Foxtail, Green plant response rating (0-100)", "setting": "[16]; [28]", "value": 90}, {"measurement": "Foxtail, Green plant response rating (0 to 100 scale)", "setting": "[16]; [29]", "value": 90}, {"measurement": "Kochia plant response rating (0-100)", "setting": "kochia (Bassia scoparia) [17]; [28]", "value": 90}, {"measurement": "Kochia plant response rating (0 to 100 scale)", "setting": "kochia (Bassia scoparia) [17]; [29]", "value": 90}, {"measurement": "Soybean plant response rating (0-100)", "setting": "soybean (Glycine max) [18]; [28]", "value": 80}, {"measurement": "Soybean plant response rating (0 to 100 scale)", "setting": "soybean (Glycine max) [18]; [29]", "value": 60}, {"measurement": "Blackgrass plant response rating (0-100)", "setting": "[19]; [28]", "value": 100}, {"measurement": "Blackgrass plant response rating (0 to 100 scale)", "setting": "[19]; [29]", "value": 90}, {"measurement": "Barnyardgrass plant response rating (0-100)", "setting": "[20]; [28]", "value": 100}, {"measurement": "Barnyardgrass plant response rating (0 to 100 scale)", "setting": "[20]; [29]", "value": 100}, {"measurement": "Pigweed, Palmer plant response rating (0-100)", "setting": "[21]; [28]", "value": 90}, {"measurement": "Pigweed, Palmer plant response rating (0 to 100 scale)", "setting": "[21]; [29]", "value": 70}, {"measurement": "Ryegrass, Italian plant response rating (0-100)", "setting": "[22]; [28]", "value": 90}, {"measurement": "Ryegrass, Italian plant response rating (0 to 100 scale)", "setting": "[22]; [29]", "value": 40}, {"measurement": "Corn plant response rating (0-100)", "setting": "corn (Zea mays) [23]; [28]", "value": 100}, {"measurement": "Corn plant response rating (0 to 100 scale)", "setting": "corn (Zea mays) [23]; [29]", "value": 100}, {"measurement": "Oat, Wild plant response rating (0-100)", "setting": "[24]; [28]", "value": 90}, {"measurement": "Oat, Wild plant response rating (0 to 100 scale)", "setting": "[24]; [29]", "value": 30}, {"measurement": "Wheat plant response rating (0-100)", "setting": "[25]; [28]", "value": 90}, {"measurement": "Wheat plant response rating (0 to 100 scale)", "setting": "[25]; [29]", "value": 80}, {"measurement": "Ragweed plant response rating (0-100)", "setting": "[26]; [28]", "value": 70}, {"measurement": "Ragweed plant response rating (0 to 100 scale)", "setting": "[26]; [29]", "value": 40}]}]}
